Values of other authors, collected in patent publication US20210393932A1, “DERMAL PATCHES AND GLASS SWABS FOR APPLICATION OF TOPICAL IMMUNOSENSITIZERS” (Squarex, LLC, priority 2020, published 2021).

Tested on: common warts and alopecia areata
Details: solutions of 0.05% to 2.0% weight/volume, vehicle almost always acetone, applied repeatedly (Buckley et al., Lee et al.); cited from earlier work

SMILES | treatment of common warts and alopecia areata
O=[N+]([O-])c1ccc(Cl)c([N+](=O)[O-])c1 [DNCB, 1-chloro-2,4-dinitrobenzene] | used successfully
O=c1c(-c2ccccc2)c1-c1ccccc1 [diphenylcyclopropenone] | used successfully
